Assay results published in patent publication US6387278B1, “Increasing subterranean mobilization of organic contaminants and petroleum by aqueous thermal oxidation” (The Regents of the University of California, priority 2000, dated 2002).

What was measured:
[1] = solubility of TCE in water as a function of temperature (Dickson-type autoclave); format: physicochemical; conditions: at 298 K; calculated from solubility measured from 298 to 398 K at constant pressure
Source text: (§1) The static autoclave experiments are run in Dickson-type, gold-bag rocking autoclaves. The autoclave reaction vessel uses a flexible gold bag sealed with a passivated titanium head and is contained within a large steel pressure vessel. The autoclave design allows periodic sampling of the reaction cell under in situ conditions throughout the course of an experiment without disturbing the temperature and pressure of the run. During the experiment the solution contacts only gold and passivated titanium so that unwanted surface catalytic effects are eliminated. Various combinations of solid, liquid or gaseous catalysts or oxidants are introduced into the reactor in order to study their effects on reaction mechanisms and rates. The sampled fluids and gases are analyzed using a variety of analytical techniques including ICP-ES, IC, GC (using purge and trap), gas MS, GC/MS, and HPLC.
A Dickson-type autoclave, as described above, equipped with a precision high pressure liquid chromatography pump to control pressure was used to measure the solubility of TCE in water as a function of temperature from 298 to 398 K at constant pressure. Obtained results were used to calculate the partial molal thermodynamic quantities for the dissolution reaction of TCE in water at 298 K: ΔGsoln=11.1 (±0.71) KJ/mol, ΔHsoln=3.075 (±0.525) KJ/mol and ΔSsoln=−28.29 (±1.61) J/mol-K.

[2] = hydrous pyrolysis/oxidation of TCE dissolved in water with dissolved oxygen; format: physicochemical; conditions: temperatures above 90° C.
Source text: as §1
All experiments are conducted in non-reactive flexible gold bag hydrothermal systems, so that complications due to experimental artifacts from catalysis by the equipment itself are avoided, and both temperature and pressure can be precisely controlled. Many samples can be taken and tested as the reaction proceeds without affecting the conditions of the reaction itself. […]

## ClC=C(Cl)Cl [TCE, trichloroethylene]
[1]
  ΔGsoln, partial molal quantity for the dissolution reaction in water: 11.1 (±0.71) KJ/mol
  ΔHsoln, partial molal quantity for the dissolution reaction in water: 3.075 (±0.525) KJ/mol
  ΔSsoln, partial molal quantity for the dissolution reaction in water: −28.29 (±1.61) J/mol-K
[2]; initial runs with high starting concentrations (up to ≧600 ppm)
  decrease of concentration by hydrous pyrolysis/oxidation: ≤ 10,000 fold
[2]; initial runs with high starting concentrations
  concentration eventually reached (drinking water MCL): 5 ppb
